According to the supplement of paper PMC11061612:

Legend:
Assay in all cases: Bliss excess, mean over the matrix (fraction); higher = more synergy
[1] = tested on: A253 (Head and Neck Carcinoma)
Summary of the method: (§1)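 Bliss excess equals the observed combination effect minus the expected value EA + EB − EA·EB, where EA and EB are the effects of each agent alone. Combination Emax is the second-highest inhibition within the matrix. Inhibition was scaled from CellTiter-Glo 2.0 luminescence, with 0 set by vehicle wells and 1 by blank wells, after 72 hours of two-drug dosing of cells plated in 1536-well plates.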

[2] = tested on: SW620 (Colorectal Carcinoma)
Summary of the method: as §1

[3] = tested on: NCI-H1651 (Lung Adenocarcinoma)
Summary of the method: as §1

[4] = tested on: A2780 (Ovarian Carcinoma)
Summary of the method: as §1

[5] = tested on: A101D (Melanoma)
Summary of the method: as §1

[6] = tested on: CGTH-W-1 (Thyroid Gland Carcinoma)
Summary of the method: as §1

[7] = tested on: LU-165 (Small Cell Lung Carcinoma)
Summary of the method: as §1

[8] = tested on: RH-41 (Rhabdomyosarcoma)
Summary of the method: as §1

[9] = tested on: huH-1 (Hepatocellular Carcinoma)
Summary of the method: as §1

[10] = tested on: UACC-812 (Breast Carcinoma)
Summary of the method: as §1

[11] = tested on: 5637 (Bladder Carcinoma)
Summary of the method: as §1

[12] = tested on: GA-10 (Burkitt's Lymphoma)
Summary of the method: as §1

[13] = tested on: KYSE-220 (Esophageal Squamous Cell Carcinoma)
Summary of the method: as §1

[14] = tested on: NCI-H2228 (Lung Adenocarcinoma)
Summary of the method: as §1

[15] = tested on: G-402 (Other Solid Carcinomas)
Summary of the method: as §1

[16] = tested on: EPLC-272H (Other Solid Carcinomas)
Summary of the method: as §1

[17] = tested on: NCI-H2087 (Lung Adenocarcinoma)
Summary of the method: as §1

[18] = tested on: JHH-2 (Hepatocellular Carcinoma)
Summary of the method: as §1

[19] = tested on: EW-16 (Ewing's Sarcoma)
Summary of the method: as §1

[20] = tested on: DU-4475 (Breast Carcinoma)
Summary of the method: as §1

SMILES | Bliss excess [1] | Bliss excess [2] | Bliss excess [3] | Bliss excess [4] | Bliss excess [5] | Bliss excess [6] | Bliss excess [7] | Bliss excess [8] | Bliss excess [9] | Bliss excess [10] | Bliss excess [11] | Bliss excess [12] | Bliss excess [13] | Bliss excess [14] | Bliss excess [15] | Bliss excess [16] | Bliss excess [17] | Bliss excess [18] | Bliss excess [19] | Bliss excess [20]
CC1(C)CCC(CN2CCN(c3ccc(C(=O)NS(=O)(=O)c4ccc(NCC5CCOCC5)c([N+](=O)[O-])c4)c(Oc4cnc5[nH]ccc5c4)c3)CC2)=C(c2ccc(Cl)cc2)C1 [Venetoclax] + C1CN(CCC1(C(=O)N[C@@H](CCO)C2=CC=C(C=C2)Cl)N)C3=NC=NC4=C3C=CN4 [Capivasertib] (first compound max 1 µM, 7x7, partner max 3 µM) | -0.0084 | -0.0511 | -0.0184 | -0.0223 | -0.0652 | -0.0532 | -0.0268 | 0.0441 | -0.0411 | -0.0212 | -0.0513 | -0.0614 | -0.0023 | -0.0537 | -0.12 | -0.0465 | -0.0553 | 0.0139 | -0.0498 | 0.0239
CC1(C)CCC(CN2CCN(c3ccc(C(=O)NS(=O)(=O)c4ccc(NCC5CCOCC5)c([N+](=O)[O-])c4)c(Oc4cnc5[nH]ccc5c4)c3)CC2)=C(c2ccc(Cl)cc2)C1 [Venetoclax] + C=CCn1c(=O)c2cnc(Nc3ccc(N4CCN(C)CC4)cc3)nc2n1-c1cccc(C(C)(C)O)n1 [AZD1775] (first compound max 1 µM, partner max 1 µM) | 0.0263 | -0.0536 | -0.0218 | 0.0477 | -0.0188 | -0.0114 | -0.0506 | 0.0778 | -0.066 | -0.0681 | -0.0414 | -0.0553 | -0.0321 | -0.0602 | -0.0625 | -0.025 | -0.0408 | 0.0531 | -0.0504 | -0.0262
CC1(C)CCC(CN2CCN(c3ccc(C(=O)NS(=O)(=O)c4ccc(NCC5CCOCC5)c([N+](=O)[O-])c4)c(Oc4cnc5[nH]ccc5c4)c3)CC2)=C(c2ccc(Cl)cc2)C1 [Venetoclax] + CCN(CCO)CCCOc1ccc2c(Nc3cc(CC(=O)Nc4cccc(F)c4)[nH]n3)ncnc2c1 [AZD2811] (first compound max 1 µM, 7x7, partner max 1 µM) | 0.046 | -0.0243 | 0.0011 | 0.019 | -0.0182 | -0.0078 | -0.0665 | 0.0561 | -0.0337 | -0.0283 | -0.0229 | 0.0033 | 0.0335 | -0.039 | -0.0036 | 0.0409 | -0.0281 | -0.038 | 0.0619 | 0.0087
CC1(C)CCC(CN2CCN(c3ccc(C(=O)NS(=O)(=O)c4ccc(NCC5CCOCC5)c([N+](=O)[O-])c4)c(Oc4cnc5[nH]ccc5c4)c3)CC2)=C(c2ccc(Cl)cc2)C1 [Venetoclax] + CN(C)CCCOc1ccc(-c2ccc3ncc4c(c3c2)n(C2CCOCC2)c(=O)n4C)cn1 [AZD0156] (first compound max 1 µM, 7x7, partner max 1 µM) | 0.0119 | -0.0142 | -0.0174 | -0.02 | 0.0088 | -0.0286 | -0.0309 | 0.0618 | -0.032 | -0.016 | -0.0273 | -0.0585 | -0.0135 | -0.0004 | -0.0774 | -0.0501 | -0.0389 | -0.028 | -0.0659 | -0.0158
CC1(C)CCC(CN2CCN(c3ccc(C(=O)NS(=O)(=O)c4ccc(NCC5CCOCC5)c([N+](=O)[O-])c4)c(Oc4cnc5[nH]ccc5c4)c3)CC2)=C(c2ccc(Cl)cc2)C1 [Venetoclax] + COc1cc(Nc2ncc3c(n2)-c2ccc(Cl)cc2C(c2c(F)cccc2OC)=NC3)ccc1C(=O)O [Alisertib] (first compound max 1 µM, 7x7, partner max 10 µM) | 0.0091 | -0.0335 | 0.0211 | -0.0602 | 0.077 | -0.0198 | 0.027 | 0.135 | -0.02 | -0.0157 | -0.0313 | 0.0181 | -0.0305 | -0.0413 | -0.0116 | 0.0442 | -0.0241 | -0.0018 | 0.0541 | 0.0933
CC1(C)CCC(CN2CCN(c3ccc(C(=O)NS(=O)(=O)c4ccc(NCC5CCOCC5)c([N+](=O)[O-])c4)c(Oc4cnc5[nH]ccc5c4)c3)CC2)=C(c2ccc(Cl)cc2)C1 [Venetoclax] + C[C@@H]1COCCN1C2=NC(=NC(=C2)C3(CC3)[S@](=N)(=O)C)C4=C5C=CNC5=NC=C4 [AZD6738] (first compound max 1 µM, 7x7, partner max 10 µM) | -0.0372 | -0.0365 | -0.0123 | -0.0548 | -0.0313 | -0.0224 | -0.117 | 0.0355 | -0.045 | 0.0003 | -0.048 | -0.0281 | -0.0398 | -0.0361 | -0.0004 | -0.0233 | -0.0511 | -0.019 | -0.0607 | 0.0062
CC1(C)CCC(CN2CCN(c3ccc(C(=O)NS(=O)(=O)c4ccc(NCC5CCOCC5)c([N+](=O)[O-])c4)c(Oc4cnc5[nH]ccc5c4)c3)CC2)=C(c2ccc(Cl)cc2)C1 [Venetoclax] + C[C@@H](Nc1cc(F)cc(F)c1)c1cc(C(=O)N(C)C)cc2c(=O)cc(N3CCOCC3)oc12 [AZD8186] (first compound max 1 µM, 7x7, partner max 3 µM) | -0.0364 | -0.0505 | -0.0212 | -0.0138 | 0.0305 | -0.0244 | -0.0042 | 0.0587 | -0.0265 | -0.0319 | -0.0273 | -0.0088 | -0.0332 | 0.0129 | -0.0612 | 0.0111 | -0.0442 | 0.0003 | -0.0278 | -0.0202
CC1(C)CCC(CN2CCN(c3ccc(C(=O)NS(=O)(=O)c4ccc(NCC5CCOCC5)c([N+](=O)[O-])c4)c(Oc4cnc5[nH]ccc5c4)c3)CC2)=C(c2ccc(Cl)cc2)C1 [Venetoclax] + Cc1cc2ncnn2cc1Nc1ncc2c(n1)n(C1CCOCC1)c(=O)n2C [AZD7648] (first compound max 1 µM, 7x7, partner max 10 µM) | 0.0072 | -0.0452 | -0.0342 | -0.03 | -0.0394 | -0.0771 | -0.0259 | -0.0007 | -0.0511 | 0.0286 | -0.0504 | -0.0603 | -0.0371 | -0.0072 | -0.0359 | -0.0656 | -0.0467 | -0.069 | -0.0534 | 0.0152
CC1(C)CCC(CN2CCN(c3ccc(C(=O)NS(=O)(=O)c4ccc(NCC5CCOCC5)c([N+](=O)[O-])c4)c(Oc4cnc5[nH]ccc5c4)c3)CC2)=C(c2ccc(Cl)cc2)C1 [Venetoclax] + Cn1cnc2c(F)c(Nc3ccc(Br)cc3Cl)c(C(=O)NOCCO)cc21 [Selumetinib] (first compound max 1 µM, 7x7, partner max 3 µM) | -0.028 | -0.0414 | -0.0367 | 0.0027 | -0.0254 | -0.0482 | -0.0588 | 0.0237 | -0.0539 | -0.0297 | -0.0194 | -0.0622 | 0.0102 | -0.0135 | -0.0298 | -0.0184 | -0.0207 | 0.016 | -0.0561 | -0.0057
